Values quoted from earlier work as cited in patent US20060204442A1, “Magnetically targetable particles comprising magnetic components and biocompatible polymers for site-specific delivery of biologically active agents” (Bankruptcy Estate of Ferx, Inc., priority 2003, published 2006).

Test system: cell lines of the national Cancer Institute's Anticancer Drug Screen Panel
Settings: Rixe et al., Biochem Pharmacol 52

IC50, published value: 0.537 µg/mL
Compound: [NH2][Pt]([NH2])([Cl])[Cl] [CDDP, cisplatin]
